{"source": "paper PMC2825141", "about": "(Journal of medicinal chemistry, 2009)", "key": {"G9a [1]": {"target": "T1, G9a (Homo sapiens, UniProt Q96KQ7)", "T1 sequence (Q96KQ7 1-1210)": "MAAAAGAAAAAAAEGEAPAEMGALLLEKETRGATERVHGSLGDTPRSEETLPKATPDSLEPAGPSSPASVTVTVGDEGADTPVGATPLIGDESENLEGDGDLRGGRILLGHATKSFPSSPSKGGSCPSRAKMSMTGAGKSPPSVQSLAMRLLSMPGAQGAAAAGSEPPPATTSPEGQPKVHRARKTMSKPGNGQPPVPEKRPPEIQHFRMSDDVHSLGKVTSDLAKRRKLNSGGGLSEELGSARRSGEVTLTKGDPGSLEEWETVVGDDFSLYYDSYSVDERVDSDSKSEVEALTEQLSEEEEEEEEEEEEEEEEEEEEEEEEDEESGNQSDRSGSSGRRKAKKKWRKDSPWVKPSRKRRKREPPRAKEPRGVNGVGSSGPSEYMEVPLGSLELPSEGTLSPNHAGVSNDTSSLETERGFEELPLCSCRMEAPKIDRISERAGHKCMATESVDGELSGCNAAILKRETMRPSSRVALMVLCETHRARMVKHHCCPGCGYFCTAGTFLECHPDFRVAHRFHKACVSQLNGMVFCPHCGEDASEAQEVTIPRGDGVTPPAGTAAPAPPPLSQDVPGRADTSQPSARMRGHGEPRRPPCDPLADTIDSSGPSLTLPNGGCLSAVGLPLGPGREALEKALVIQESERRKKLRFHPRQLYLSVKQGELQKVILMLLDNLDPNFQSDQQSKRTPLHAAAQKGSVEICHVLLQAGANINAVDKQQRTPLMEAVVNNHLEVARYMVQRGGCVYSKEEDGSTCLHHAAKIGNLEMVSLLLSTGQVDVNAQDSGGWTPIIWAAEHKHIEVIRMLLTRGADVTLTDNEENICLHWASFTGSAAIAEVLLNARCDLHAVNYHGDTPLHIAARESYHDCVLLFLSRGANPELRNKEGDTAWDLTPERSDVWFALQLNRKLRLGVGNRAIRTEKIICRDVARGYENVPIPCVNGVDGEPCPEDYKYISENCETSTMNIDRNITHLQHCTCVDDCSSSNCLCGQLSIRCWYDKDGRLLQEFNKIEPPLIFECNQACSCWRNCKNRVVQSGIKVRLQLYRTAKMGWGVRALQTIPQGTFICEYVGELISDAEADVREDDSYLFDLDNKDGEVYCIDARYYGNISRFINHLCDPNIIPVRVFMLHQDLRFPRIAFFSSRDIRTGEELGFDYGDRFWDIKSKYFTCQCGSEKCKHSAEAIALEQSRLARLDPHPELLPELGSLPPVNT", "assay": "G9a FP assay", "assay_type": "binding", "conditions": "compared to 2a"}, "G9a [2]": {"target": "T1, G9a", "assay": "DSF stabilization of G9a", "assay_type": "binding", "conditions": "compared to 2a"}}, "data": [{"molecule": "COc1cc2c(NC3CCN(C)CC3)nc(N3CCCN(C)CC3)nc2cc1OCCCN(C)C", "note": "[Compound 8]", "values": [{"measurement": "Displacement of fluorescein labeled 15-mer H3 peptide (1–15)", "setting": "G9a [1]", "value": "displaced fluorescein labeled 15-mer H3 peptide (1–15) better than 2a"}, {"measurement": "Stabilization of G9a in DSF", "setting": "G9a [2]", "value": "stabilized G9a better compared to 2a"}]}]}
